pIC50: −log10 of the molar value. Where “and” joins values, the source holds several entries; their conditions need not be identical. Identical values can stand only once.
Tested on: 772245-204-R-J1-PDC complex spheroid growth
Experiment: Anticancer human tumor 772245-204-R-J1-PDC patient-derived rhabdomyosarcoma cell line growth inhibition [Asc]
Conditions: for viability, T/C: stronger effect = lower value
In short: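 Tumor cells were grown as multicellular spheroids with stromal HUVEC and mesenchymal stem cells and treated singly or in combination. Concentrations fell in half-log steps from the clinical Cmax, or from 10 microM where none was known.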
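Note: compound exposure lasted seven days.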
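Throughout, for viability, T/C: 100% = DMSO vehicle control viability.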

## O=C(c1cc(Cc2n[nH]c(=O)c3ccccc23)ccc1F)N1CCN(C(=O)C2CC2)CC1 + Cc1c(S(C)(=O)=O)c(-c2cc(F)cc(N3CCN(c4ccc(NS(=O)(=O)c5ccc(NC(CCN6CCC(C(=O)OCCCP(=O)(O)O)CC6)CSc6ccccc6)c(S(=O)(=O)C(F)(F)F)c5)cc4)CC3)c2)c(-c2ccc(Cl)cc2)n1C(C)C
Curve of first compound, second compound 0.1 µM
  pIC50: 5.49
Curve of first compound, second compound 0.316 µM
  pIC50: 6.36
Curve of first compound, second compound 1 µM
  pIC50: 7.35
Curve of first compound, second compound 3.16 µM
  pIC50: > 7.50
Curve of first compound, second compound 10 µM
  pIC50: > 7.50
Second compound 0.1 µM, first compound 0.0316 µM
  viability, T/C: 76.8%
Second compound 0.1 µM, first compound 0.1 µM
  viability, T/C: 81.5%
Second compound 0.1 µM, first compound 0.316 µM
  viability, T/C: 83.2%
Second compound 0.1 µM, first compound 1 µM
  viability, T/C: 63.6%
Second compound 0.1 µM, first compound 3.16 µM
  viability, T/C: 52.7%
Second compound 0.1 µM, first compound 10 µM
  viability, T/C: 34.3%
Second compound 0.316 µM, first compound 0.0316 µM
  viability, T/C: 62.8%
Second compound 0.316 µM, first compound 0.1 µM
  viability, T/C: 50.5%
Second compound 0.316 µM, first compound 0.316 µM
  viability, T/C: 44.2%
Second compound 0.316 µM, first compound 1 µM
  viability, T/C: 54.5%
Second compound 0.316 µM, first compound 3.16 µM
  viability, T/C: 28.5%
Second compound 0.316 µM, first compound 10 µM
  viability, T/C: 10.6%
Second compound 1 µM, first compound 0.0316 µM
  viability, T/C: 52.1%
Second compound 1 µM, first compound 0.1 µM
  viability, T/C: 46.8%
Second compound 1 µM, first compound 0.316 µM
  viability, T/C: 46.9%
Second compound 1 µM, first compound 1 µM
  viability, T/C: 30.7%
Second compound 1 µM, first compound 3.16 µM
  viability, T/C: 12.8%
Second compound 1 µM, first compound 10 µM
  viability, T/C: 6.31%
Second compound 3.16 µM, first compound 0.0316 µM
  viability, T/C: 26.3%
Second compound 3.16 µM, first compound 0.1 µM
  viability, T/C: 36.3%
Second compound 3.16 µM, first compound 0.316 µM
  viability, T/C: 33.9%
Second compound 3.16 µM, first compound 1 µM
  viability, T/C: 22%
Second compound 3.16 µM, first compound 3.16 µM
  viability, T/C: 6.64%
Second compound 3.16 µM, first compound 10 µM
  viability, T/C: 2.64%
Second compound 10 µM, first compound 0.0316 µM
  viability, T/C: 34.8%
Second compound 10 µM, first compound 0.1 µM
  viability, T/C: 47.2%
Second compound 10 µM, first compound 0.316 µM
  viability, T/C: 33.8%
Second compound 10 µM, first compound 1 µM
  viability, T/C: 17.4%
Second compound 10 µM, first compound 3.16 µM
  viability, T/C: 13.3%
Second compound 10 µM, first compound 10 µM
  viability, T/C: 6.24%

## O=C(c1cc(Cc2n[nH]c(=O)c3ccccc23)ccc1F)N1CCN(C(=O)C2CC2)CC1
Compound 0.0316 µM
  viability, T/C: 84.8% and 122% and 103%
Compound 0.1 µM
  viability, T/C: 109% and 93.1% and 107%
Compound 0.316 µM
  viability, T/C: 92.4% and 70.8% and 81.9%
Compound 1 µM
  viability, T/C: 79.6% and 91.7% and 83.5%
Compound 3.16 µM
  viability, T/C: 80.8% and 88.8% and 89.9%
Compound 10 µM
  viability, T/C: 59.2% and 60% and 83.6%
Curve of compound
  pIC50: < 5.00

— PubChem BioAssay AID1963433 (Molecular Pharmacology Branch, DTP, NCI, 2024)
